{
  "source": "ChEMBL document CHEMBL3045652",
  "about": "“Biorational glycol diesters as dietary toxins versus bioefficacy of sucrose octanoate against lepidopteran larvae” (Ind Crops Prod, 2012)",
  "key": {"Helicoverpa armigera [1]": {"test_system": "Helicoverpa armigera", "assay": "Antifeedant activity against third-instar larval stage of Helicoverpa armigera fed with artificial diet containing compound assessed as relative consumption rate at 3.94 mg/ml after 3 days (reference value: 1.88 +/- 0.14 mg/mg/day)", "assay_type": "functional"}, "Spodoptera litura [2]": {"test_system": "Spodoptera litura", "assay": "Antifeedant activity against third-instar larval stage of Spodoptera litura fed with artificial diet containing compound assessed as relative growth rate at 3.98 mg/ml after 3 days (reference value: 1.37 +/- 0.12 mg/mg/day)", "assay_type": "functional"}, "Helicoverpa armigera [3]": {"test_system": "Helicoverpa armigera", "assay": "Insecticidal activity against second-instar larval stage of Helicoverpa armigera assessed as mortality applied as spray after 72 hr", "assay_type": "functional"}, "Spodoptera litura [4]": {"test_system": "Spodoptera litura", "assay": "Insecticidal activity against second-instar larval stage of Spodoptera litura fed with artificial diet containing compound assessed as growth inhibition after 7 days", "assay_type": "functional, organism-based", "details": "for EC50: 168 h"}, "Helicoverpa armigera [5]": {"test_system": "Helicoverpa armigera", "assay": "Insecticidal activity against second-instar larval stage of Helicoverpa armigera fed with artificial diet containing compound assessed as growth inhibition after 7 days", "assay_type": "functional, organism-based", "details": "for EC50: 168 h"}, "Helicoverpa armigera [6]": {"test_system": "Helicoverpa armigera", "assay": "Antifeedant activity against third-instar larval stage of Helicoverpa armigera fed with artificial diet containing compound assessed as relative growth rate at 3.94 mg/ml after 3 days (reference value: 0.97 +/- 0.13 mg/mg/day)", "assay_type": "functional"}, "Spodoptera litura [7]": {"test_system": "Spodoptera litura", "assay": "Insecticidal activity against second-instar larval stage of Spodoptera litura assessed as mortality applied as spray after 72 hr", "assay_type": "functional"}, "Spodoptera litura [8]": {"test_system": "Spodoptera litura", "assay": "Insecticidal activity against second-instar larval stage of Spodoptera litura fed with artificial diet containing compound assessed as mortality after 7 days", "assay_type": "functional", "details": "168 h"}, "Helicoverpa armigera [9]": {"test_system": "Helicoverpa armigera", "assay": "Antifeedant activity against third-instar larval stage of Helicoverpa armigera fed with artificial diet containing compound assessed as efficiency index of ingested food at 3.94 mg/ml after 3 days (reference value: 52%)", "assay_type": "functional"}, "Helicoverpa armigera [10]": {"test_system": "Helicoverpa armigera", "assay": "Insecticidal activity against second-instar larval stage of Helicoverpa armigera fed with artificial diet containing compound assessed as mortality after 7 days", "assay_type": "functional", "details": "168 h"}, "Spodoptera litura [11]": {"test_system": "Spodoptera litura", "assay": "Antifeedant activity against third-instar larval stage of Spodoptera litura fed with artificial diet containing compound assessed as efficiency index of ingested food at 3.98 mg/ml after 3 days (reference value: 64.5%)", "assay_type": "functional"}, "Spodoptera litura [12]": {"test_system": "Spodoptera litura", "assay": "Antifeedant activity against third-instar larval stage of Spodoptera litura fed with artificial diet containing compound assessed as relative consumption rate at 3.98 mg/ml after 3 days (reference value: 2.13 +/- 0.18 mg/mg/day)", "assay_type": "functional"}, "Spodoptera litura [13]": {"test_system": "Spodoptera litura", "assay": "Antifeedant activity against third-instar larval stage of Spodoptera litura fed with artificial diet containing compound assessed as relative growth rate at 3.72 mg/ml after 3 days (reference value: 1.37 +/- 0.12 mg/mg/day)", "assay_type": "functional"}, "Helicoverpa armigera [14]": {"test_system": "Helicoverpa armigera", "assay": "Antifeedant activity against third-instar larval stage of Helicoverpa armigera fed with artificial diet containing compound assessed as relative growth rate at 6.02 mg/ml after 3 days (reference value: 0.97 +/- 0.13 mg/mg/day)", "assay_type": "functional"}, "Helicoverpa armigera [15]": {"test_system": "Helicoverpa armigera", "assay": "Antifeedant activity against third-instar larval stage of Helicoverpa armigera fed with artificial diet containing compound assessed as efficiency index of ingested food at 6.02 mg/ml after 3 days (reference value: 52%)", "assay_type": "functional"}, "Helicoverpa armigera [16]": {"test_system": "Helicoverpa armigera", "assay": "Insecticidal activity against second-instar larval stage of Helicoverpa armigera assessed as increase in mortality applied as spray at 1 to 10 mg/ml after 72 hr", "assay_type": "functional, organism-based"}, "Helicoverpa armigera [17]": {"test_system": "Helicoverpa armigera", "assay": "Antifeedant activity against third-instar larval stage of Helicoverpa armigera fed with artificial diet containing compound assessed as relative consumption rate at 6.02 mg/ml after 3 days (reference value: 1.88 +/- 0.14 mg/mg/day)", "assay_type": "functional"}, "Spodoptera litura [18]": {"test_system": "Spodoptera litura", "assay": "Antifeedant activity against third-instar larval stage of Spodoptera litura fed with artificial diet containing compound assessed as relative consumption rate at 3.72 mg/ml after 3 days (reference value: 2.13 +/- 0.18 mg/mg/day)", "assay_type": "functional"}, "Spodoptera litura [19]": {"test_system": "Spodoptera litura", "assay": "Insecticidal activity against second-instar larval stage of Spodoptera litura assessed as increase in mortality applied as spray at 1 to 10 mg/ml after 72 hr", "assay_type": "functional, organism-based"}, "Spodoptera litura [20]": {"test_system": "Spodoptera litura", "assay": "Antifeedant activity against third-instar larval stage of Spodoptera litura fed with artificial diet containing compound assessed as efficiency index of ingested food at 3.72 mg/ml after 3 days (reference value: 64.5%)", "assay_type": "functional"}},
  "note": "Activity calls are given as the source filed them. The rule behind the calls is not given here.",
  "data": [
    {"smiles": "CCCCCCCC(=O)OCCOC(=O)CCCCCCC", "note": "[ETHYLENE GLYCOL DIOCTANOATE]", "values": [
      {"measurement": "Activity", "setting": "Helicoverpa armigera [1]", "result": 1.9, "unit": "mg/mg/day"},
      {"measurement": "Activity", "setting": "Spodoptera litura [2]", "result": 0.72, "unit": "mg/mg/day"},
      {"measurement": "LC50", "setting": "Helicoverpa armigera [3]", "result": 6500, "unit": "µg/mL"},
      {"measurement": "growth inhibition (GI)", "setting": "Spodoptera litura [4]", "result": "Dose-dependent effect"},
      {"measurement": "EC50", "setting": "Spodoptera litura [4]", "result": 1980, "unit": "µg/mL"},
      {"measurement": "growth inhibition (GI)", "setting": "Helicoverpa armigera [5]", "result": "Dose-dependent effect"},
      {"measurement": "EC50", "setting": "Helicoverpa armigera [5]", "result": 2080, "unit": "µg/mL"},
      {"measurement": "Activity", "setting": "Helicoverpa armigera [6]", "result": 0.69, "unit": "mg/mg/day"},
      {"measurement": "LC50", "setting": "Spodoptera litura [7]", "result": 6100, "unit": "µg/mL"},
      {"measurement": "LC50", "setting": "Spodoptera litura [8]", "result": 2000, "unit": "µg/mL"},
      {"measurement": "ECI", "setting": "Helicoverpa armigera [9]", "result": 36.5, "unit": "%"},
      {"measurement": "LC50", "setting": "Helicoverpa armigera [10]", "result": 3140, "unit": "µg/mL"},
      {"measurement": "ECI", "setting": "Spodoptera litura [11]", "result": 8, "unit": "%"},
      {"measurement": "Activity", "setting": "Spodoptera litura [12]", "result": 2, "unit": "mg/mg/day"}
    ]},
    {"smiles": "CCCC(=O)OCCOC(=O)CCC", "note": "[ETHYLENE GLYCOL DIBUTANOATE]", "values": [
      {"measurement": "Activity", "setting": "Spodoptera litura [13]", "result": 0.74, "unit": "mg/mg/day"},
      {"measurement": "Activity", "setting": "Helicoverpa armigera [14]", "result": 0.55, "unit": "mg/mg/day"},
      {"measurement": "ECI", "setting": "Helicoverpa armigera [15]", "result": 32.4, "unit": "%"},
      {"measurement": "Activity", "setting": "Helicoverpa armigera [16]", "result": "Active"},
      {"measurement": "growth inhibition (GI)", "setting": "Spodoptera litura [4]", "result": "Dose-dependent effect"},
      {"measurement": "EC50", "setting": "Spodoptera litura [4]", "result": 1850, "unit": "µg/mL"},
      {"measurement": "Activity", "setting": "Helicoverpa armigera [17]", "result": 1.7, "unit": "mg/mg/day"},
      {"measurement": "growth inhibition (GI)", "setting": "Helicoverpa armigera [5]", "result": "Dose-dependent effect"},
      {"measurement": "EC50", "setting": "Helicoverpa armigera [5]", "result": 2820, "unit": "µg/mL"},
      {"measurement": "LC50", "setting": "Spodoptera litura [8]", "result": 2000, "unit": "µg/mL"},
      {"measurement": "LC50", "setting": "Helicoverpa armigera [10]", "result": 2000, "unit": "µg/mL"},
      {"measurement": "Activity", "setting": "Spodoptera litura [18]", "result": 2.04, "unit": "mg/mg/day"},
      {"measurement": "Activity", "setting": "Spodoptera litura [19]", "result": "Active"},
      {"measurement": "ECI", "setting": "Spodoptera litura [20]", "result": 2, "unit": "%"}
    ]}
  ]
}
